Experimental data: paper PMC6283615, “Anilinoquinoline based inhibitors of trypanosomatid proliferation” (PLoS Neglected Tropical Diseases, 2018)
≈ marks a conversion by molar mass, not a printed value.

Columns and labels:
LogD7.4 = type: physicochemical; conditions: pH 7.4
NIH/3T3 cells = assay: Drug toxicity to 3T3 cells (Alamar Blue, 96 h); type: cell-based
Description: In a 96-well plate, 5×10^4 NIH/3T3 (ATCC CRL-1658) cells (purchased from ATCC) in DMEM without phenol red supplemented with 2% FBS were added to each well. Cells were incubated for 2 h to allow for attachment. Compounds were added in triplicates at 200 μM and in serial dilutions 1:2 and incubated at 37°C, 5% CO2 for 96 h. […] Following incubation, 10 μL of Alamar Blue (ThermoFisher) were added to each well and cells incubated at 37°C, 5% CO2 for 4 h. Absorbance was read at 590–595 nm.

[1] = system: T. b. brucei (strain 427); assay: T. b. brucei proliferation assay (PrestoBlue, 48 h); type: cell-based, Trypanosoma brucei brucei
Description: The assay was performed following a previously reported procedure. Briefly, in a 96-well plate, compounds were added in triplicates at 50 μM and in serial dilutions 1:2 in HMI-9 medium. To each well, 100 μL of 2.5×10^3 T. b. brucei (strain 427, received as a gift from Dr. C. C. Wang at UCSF) in HMI-9 medium was were added and incubated at 37°C, 5% CO2 for 48 h. Following incubation, 20 μL of PrestoBlue were added to each well and incubated for additional 4 h. Fluorescence was read at 530 nm excitation and 590 nm emission.

Aqueous solubility = type: physicochemical
[2] = Human plasma protein binding; type: in vitro ADME
L. major amastigote = assay: L. major intracellular amastigote luciferase assay in RAW 264.7 macrophages; type: cell-based, Leishmania major; conditions: intracellular amastigotes in RAW 264.7 macrophages, 96 h
Description: Amastigote assays were performed using pLEXSY-hyg2-luciferase L. major transfected promastigotes and the murine RAW 264.7 macrophage cell line (ATCC TIB-71, Manassas, VA). Briefly, luciferase-expressing promastigotes of each Leishmania species were generated by adding a luciferase encoding region to the pLEXSY-hyg2 vector (Jena Biosciences, Germany) as described. One μg of the linearized pLEXSY-hyg2-luciferase vector were electroporated (480 V, 13 Ω, and 500 μF) into 4×10^7 Leishmania promastigotes. Selection for stable promastigote transfectants was carried out using hygromycin B (100 μg/mL). RAW 264.7 macrophages were maintained in growth medium (Dulbecco’s Modified Eagle’s Medium supplemented with heat-inactivated 10% FBS (Life Technologies)). Cells were harvested and resuspended in growth medium at 2.0×10^5 cells/mL, and 1×10^4 cells/well were dispensed (final volume 50 μL) in each well of a 384 well tissue-culture treated white plate using a EVO Freedom liquid handling system (Tecan, Durham, NC). Plates were incubated at 37°C in 5% CO2 for 24 h after which the culture medium was removed from each well using the EVO Freedom liquid handler. Metacyclic phase pLEXSY-hyg2-luciferase-Leishmania promastigotes (MOI = 1:10 L. major) were added to each assay plate well and allowed to infect the RAW 264.7 macrophages. After an overnight incubation, the growth medium was aspirated and each well was washed three times with 40 μL of fresh growth medium to remove non-internalized promastigotes. After the third wash, 69.2 μL of growth medium was added to each well. Compound dilutions (final concentration ranges 0.5–10,000 ng/mL) were generated and dispensed using the liquid handling system. Compound treated plates were incubated at 37°C in 5% CO2 for 96 h. After incubation, 7.5 μL of a luciferin solution (Caliper Life Science, Waltham, MA) diluted to 150 μg/mL was added to each well, and the plates were incubated for 30 min at 37°C in the dark. Data were captured using an Infinite M200 plate reader (Tecan). EC50s were generated for each concentration response test using GraphPad Prism software 6.0.

[3] = system: T. cruzi amastigote (Tulahuen strain expressing β-galactosidase); assay: Intracellular T. cruzi assay in 3T3 cells (beta-galactosidase, 96 h); type: cell-based, Trypanosoma cruzi; conditions: intracellular in 3T3 cells, 96 h; read-out: T. cruzi amastigote EC50
Description: In a 96-well plate, 5×10^4 3T3 cells in DMEM without phenol red supplemented with 2% FBS were added to each well. Cells were incubated for 2 h to allow for attachment. Compounds were added in triplicates at 50 μM and in serial dilutions 1:2. To each well, 5×10^4 T. cruzi trypomastigotes (Tulahuen strain expressing β-galactosidase) were added and incubated at 37°C, 5% CO2 for 96 h. Following incubation, 50 μL of 500 μM chlorophenol Red-β-D-galactopyranoside (CPRG) in phosphate-buffered saline with 0.5% NP40 was added to each well and incubated at 37°C, 5% CO2 for 4 h. Absorbance was read at 590–595 nm.

HepG2 cells = assay: Drug toxicity to HepG2 cells (MTT, 48 h); type: cell-based, human; conditions: tested concentration ranges based on compound solubility
Description: HepG2 cells were cultured in complete Minimal Essential Medium prepared by supplementing MEM with 0.19% sodium bicarbonate, 10% heat inactivated FBS, 2 mM L-glutamine, 0.1 mM MEM non-essential amino, 0.009 mg/mL insulin, 1.76 mg/mL bovine serum albumin, 20 units/mL penicillin–streptomycin, and 0.05 mg/mL gentamycin. HepG2 cells cultured in complete MEM were first washed with 1× Hank’s Balanced Salt Solution (Invitrogen #14175095), trypsinized using a 0.25% trypsin/EDTA solution, assessed for viability using trypan blue, and resuspended at 250,000 cells/mL. Using a Tecan EVO Freedom robot, 38.3 μL of cell suspension were added to each well of clear, cell culture-treated 384-well microtiter plates for a final concentration of 9570 liver cells per well, and plated cells were incubated overnight in 5% CO2 at 37°C. Drug plates were prepared with the Tecan EVO Freedom using sterile 96 well plates containing twelve duplicate 1.6-fold serial dilutions of each test compound suspended in DMSO. 4.25 μL of diluted test compound was then added to the 38.3 μL of media in each well providing a […] final dilution of compound. Compounds were tested from a range of 57 ng/mL to 10,000 ng/mL for all assays. Mefloquine was used as a plate control for all assays with a concentration ranging from 113 ng/mL to 20,000 ng/mL. After a 48 h incubation period, 8 μL of a 1.5 mg/mL solution of MTT diluted in complete MEM media was added to each well. All plates were subsequently incubated in the dark for 1 h at room temperature. After incubation, the media and drugs in each well was removed by shaking the plate over sink, and the plates were left to dry in a fume hood for 15 mins. Next, 30 μL of isopropanol acidified by addition of HCl at a final concentration of 0.36% was added to dissolve the formazan dye crystals created by reduction of MTT. Plates are put on a 3-D rotator for 15–30 mins. Absorbance was determined in all wells using a Tecan iControl 1.6 Infinite plate reader.

[4] = Human liver microsome intrinsic clearance; type: in vitro ADME
[5] = Rat hepatocyte intrinsic clearance; type: in vitro ADME

| SMILES | LogD7.4 (LogD7.4) | 3T3 TC50 (NIH/3T3 cells) [µM] | EC50 [1] [µM] | solubility (Aqueous solubility) [µM] | Human PPB [2] [%] | EC50 (L. major amastigote) [µM] | EC50 [3] [µM] | HepG2 TC50 (HepG2 cells) [µM] | Human Liver Microsome CLint [4] [µL/min/mg] | Rat Hepatocyte CLint [5] [μL/min/10^6 cells] |
| --- | --- | --- | --- | --- | --- | --- | --- | --- | --- | --- |
| CN1CCN(S(=O)(=O)c2ccc(-c3ccc4c(Nc5ccc6[nH]nnc6c5)ccnc4c3)cc2)CC1 [NEU-1018] | 3.4 | > 100 | > 50 | < 1 | 98 | 17 | > 50 | 28 | – | – |
| CN1CCN(S(=O)(=O)c2ccc(-c3ccc4c(Nc5cccnc5)ccnc4c3)cc2)CC1 [NEU-1019] | 2 | > 100 | 5.4 | 175 (≈ 80.4 µg/mL) | 85 | 22 | > 50 | 36 | – | – |
| CN1CCN(S(=O)(=O)c2ccc(-c3ccc4c(Nc5ccnnc5)ccnc4c3)cc2)CC1 [NEU-1020] | -0.5 | > 100 | > 50 | > 1000 | 57 | 22 | > 50 | 36 | – | – |
| Cc1cc(Nc2ccnc3cc(-c4ccc(S(=O)(=O)N5CCN(C)CC5)cc4)ccc23)sn1 [NEU-1023] | 4.2 | > 100 | 0.6 | < 1 | 99 | 8.4 | 25 | 35 | – | – |
| CN1CCN(S(=O)(=O)c2ccc(-c3ccc4c(Nc5cnc(C#N)cn5)ccnc4c3)cc2)CC1 [NEU-1024] | 3.7 | > 100 | 3 | < 1 | 97 | 19 | > 50 | 31 | – | – |
| CN1CCN(S(=O)(=O)c2ccc(-c3ccc4c(Nc5ncc(Cl)cn5)ccnc4c3)cc2)CC1 [NEU-1025] | 4.1 | 11 | 1.5 | 4.8 (≈ 2.38 µg/mL) | 99 | 8.7 | 8.8 | 31 | – | – |
| Cc1nnc(Nc2ccnc3cc(-c4ccc(S(=O)(=O)N5CCN(C)CC5)cc4)ccc23)nc1C [NEU-1028] | 3.4 | > 100 | > 50 | 1.5 (≈ 0.734 µg/mL) | 93 | 4 | > 50 | 6.4 | – | – |
| CN1CCN(c2ncc(-c3ccc4c(Nc5ccc6[nH]nnc6c5)ccnc4c3)cn2)CC1 [NEU-1957] | 3.3 | > 100 | 21 | < 1 | 91 | 21 | > 50 | 14 | 120 | 51 |
